Experimental data taken from ChEMBL document CHEMBL1201862, “PubChem BioAssay data set” (2004).
Activity calls are given as the source filed them.

Experiments:
[1] = HEK293 cell cytotoxicity, dose response, cytotoxicity control, cherry-picks, set 5 (AID 1053117); type: functional, cell-based
[2] = inhibitors of fibronectin matrix deposition, dose response, AH1F cells, Alexa488-FN fluorescence, cherry-picks (AID 1035475); type: functional, cell-based
[3] = HepG2 cell cytotoxicity, dose response, cytotoxicity control, cherry-picked samples (AID 1159577); type: functional, cell-based
[4] = HEK293T cytotoxicity, dose response, cytotoxicity control for miR-122 modulator project, cell-based, inhibitor set, cherry-pick, set 2 (AID 720697); type: functional
[5] = P. falciparum Dd2 growth inhibitors, dose response, SYBR Green, cherry-picked samples (AID 1159567); type: functional, cell-based
[6] = miR-122 activators in hepatoma reporter cells, dose response, cell-based, Huh7 psiCHECK-miR122, Renilla luciferase, cherry-picked (AID 651956); type: functional;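 also: huh7 hepatoma cells stably carrying a psiCHECK-2 miR-122 sensor plasmid; renilla luciferase signal reporting endogenous miR-122 activity after 48 h compound exposure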
[7] = HepG2 cell cytotoxicity, dose response, cytotoxicity control, cherry-picks, set 5 (AID 1053118); type: functional, cell-based
[8] = molecular target: Paired box protein Pax-8 (Homo sapiens, UniProt Q06710); experiment: inhibitors of PAX8-driven TPO luciferase reporter, dose response, RMG-I cells, cherry-pick (AID 687027); type: functional, cell-based;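 also: luciferase reporter driven by Pax8 target thyroperoxidase promoter measured by SteadyGlo luminescence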
[9] = IGROV1 ovarian cancer cell cytotoxicity, dose response, PAX8 inhibitor project, plate reader, dry powder samples (AID 743043); type: functional, cell-based; details: IGROV-1
[10] = molecular target: T1, High affinity choline transporter 1 (Homo sapiens, UniProt Q9GZV3); experiment: CHT choline uptake inhibitors, dose response, cell-based, HEK-293 hCHT, [3H]-choline uptake (AID 652177); type: functional
T1 sequence (Q9GZV3 whole entry): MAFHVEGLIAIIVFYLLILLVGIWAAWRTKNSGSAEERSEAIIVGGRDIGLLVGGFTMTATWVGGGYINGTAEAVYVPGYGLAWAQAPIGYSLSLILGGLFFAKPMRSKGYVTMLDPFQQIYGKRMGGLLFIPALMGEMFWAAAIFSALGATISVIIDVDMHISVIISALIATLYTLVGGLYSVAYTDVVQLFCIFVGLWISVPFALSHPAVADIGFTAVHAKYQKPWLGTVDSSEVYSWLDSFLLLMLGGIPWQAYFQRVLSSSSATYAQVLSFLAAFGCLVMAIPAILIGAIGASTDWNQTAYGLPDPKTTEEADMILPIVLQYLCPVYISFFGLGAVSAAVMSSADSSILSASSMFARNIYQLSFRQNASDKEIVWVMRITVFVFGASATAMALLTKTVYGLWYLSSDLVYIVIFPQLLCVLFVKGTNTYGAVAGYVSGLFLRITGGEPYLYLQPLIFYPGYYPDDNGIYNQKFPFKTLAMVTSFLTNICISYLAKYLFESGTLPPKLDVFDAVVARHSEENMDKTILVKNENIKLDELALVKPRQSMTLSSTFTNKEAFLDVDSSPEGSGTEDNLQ

[11] = MC4R antagonists, dose response, counter-screen for LGR2 antagonist project, cell-based, plate reader, cherry pick (AID 743444); type: functional;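 also: transfected HEK 293 cells stimulated with alpha-MSH peptide; potency of inhibitors of the alpha-MSH evoked signal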
[12] = HEK293 cell cytotoxicity, dose response, cytotoxicity control, plate reader, cherry-picked samples (AID 743446); type: functional, cell-based
[13] = A549 cell cytotoxicity, dose response, cytotoxicity control, plate reader, cherry-pick, antagonist series (AID 743412); type: functional, cell-based
[14] = LGR2 antagonists, dose response, cell-based, HEK293, CRE-luciferase reporter, cherry pick, set 2 (AID 743343); type: functional;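 also: transfected cells were stimulated with diluted bursicon conditioned medium after compound addition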
[15] = LGR2 antagonists, dose response, cell-based, HEK293, CRE-luciferase reporter, cherry pick (AID 743342); type: functional
[16] = molecular target: Protein Wnt-3a (Mus musculus, UniProt P27467); experiment: SAR analysis of small molecule antagonists of Gli-SUFU in a Wnt3a luminescent reporter assay.; type: functional
[17] = molecular target: Botulinum neurotoxin type F (Clostridium botulinum, UniProt P30996); experiment: High-throughput multiplex microsphere dose response for inhibitors of toxin protease, specifically Botulinum neurotoxin light chain F protease, compounds from Cherry Pick 02.; type: functional; details: read-out: EC50_MICROM
[18] = system: H9c2; experiment: cells; type: functional, cell-based; details: Rattus norvegicus, H9c2, Myocardium;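 also: confirmatory concentration-response retest of ultra-high-throughput screening hits for modulation of myocardial damage; cell death induced by hydrogen peroxide oxidative stress; compound pretreatment for 60 min then peroxide exposure for 2 h; potency is for protecting the cells against peroxide damage rather than for killing them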
[19] = HepG2 cell cytotoxicity, dose response, cytotoxicity control for Shn3 inhibitor project, CellTiter-Glo, cherry-picked (AID 624134); type: functional, cell-based
[20] = cytotoxicity toward HCT116 cells – cell-based, CellTiter-Glo luminescence, IC50, dose response (AID 1117332); type: functional; details: HCT-116
[21] = CellTiter-Glo luminescent dose response of DLD-1 viability loss (AID 1117352); type: functional
[22] = HeLa 4N DNA content increase, dose response, cell-based, IC50 (AID 1117351); type: functional
[23] = Shn3 3'UTR reporter inhibitors, dose response, cell-based, Clone20 osteoblasts, firefly luciferase, cherry-picked (AID 624132); type: functional;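 also: firefly luciferase luminescence from reporter carrying the Shn3 3'UTR in osteoblasts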
[24] = cells; type: functional, cell-based; details: HEK-CNG
[25] = Concentration-dependent survival of SW480 colon cancer line, luminescence detection with CellTiter-Glo, half-maximal inhibitory concentration (AID 1117338); type: functional
[26] = HeLa 2N DNA content increase, dose response, cell-based, IC50 (AID 1117349); type: functional
[27] = cytotoxicity toward Colo320 cells – cell-based, CellTiter-Glo luminescence, IC50, dose response (AID 1117334); type: functional; details: COLO 320
[28] = cytotoxicity toward HT-29 cells – cell-based, CellTiter-Glo luminescence, IC50, dose response (AID 1117330); type: functional
[29] = molecular target: COUP transcription factor 2 (Homo sapiens, UniProt P24468); experiment: Luminescence-based cell-based high throughput dose response assay to identify inhibitors of COUP-TFII (NR2F2).; type: functional;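 also: HEK293 cells transiently cotransfected with COUP-TFII expression vector and reporter; luciferase reporter luminescence driven by COUP-TFII from the pX2-168 reporter plasmid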
[30] = control 3'UTR Renilla luciferase suppression, dose response, counter-screen for Shn3 inhibitor project, cell-based, Clone20-Shn3RL, cherry-picked (AID 624133); type: functional
[31] = molecular target: Galanin receptor type 3 (Homo sapiens, UniProt O60755); experiment: Fluorescence-based cell-based primary high throughput dose response assay to identify antagonists of the Galanin Receptor 3 (GalR3).; type: functional
[32] = SNU-C1 cell viability reduction, dose response, CellTiter-Glo luminescence (AID 1117323); type: functional, cell-based

COUP transcription factor 2, sequence (P24468 whole entry): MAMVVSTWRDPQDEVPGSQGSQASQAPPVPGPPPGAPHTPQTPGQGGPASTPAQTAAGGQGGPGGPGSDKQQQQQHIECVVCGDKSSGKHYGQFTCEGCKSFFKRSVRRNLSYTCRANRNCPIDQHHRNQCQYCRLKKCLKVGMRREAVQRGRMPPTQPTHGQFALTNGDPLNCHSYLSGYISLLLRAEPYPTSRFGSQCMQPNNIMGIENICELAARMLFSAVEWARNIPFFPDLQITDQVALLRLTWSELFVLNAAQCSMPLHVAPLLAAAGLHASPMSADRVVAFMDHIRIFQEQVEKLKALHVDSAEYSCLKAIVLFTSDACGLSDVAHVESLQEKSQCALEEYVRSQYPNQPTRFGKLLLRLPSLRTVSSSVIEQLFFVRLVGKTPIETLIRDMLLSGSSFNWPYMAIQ
Botulinum neurotoxin type F, sequence (P30996 1-436 limits assumed): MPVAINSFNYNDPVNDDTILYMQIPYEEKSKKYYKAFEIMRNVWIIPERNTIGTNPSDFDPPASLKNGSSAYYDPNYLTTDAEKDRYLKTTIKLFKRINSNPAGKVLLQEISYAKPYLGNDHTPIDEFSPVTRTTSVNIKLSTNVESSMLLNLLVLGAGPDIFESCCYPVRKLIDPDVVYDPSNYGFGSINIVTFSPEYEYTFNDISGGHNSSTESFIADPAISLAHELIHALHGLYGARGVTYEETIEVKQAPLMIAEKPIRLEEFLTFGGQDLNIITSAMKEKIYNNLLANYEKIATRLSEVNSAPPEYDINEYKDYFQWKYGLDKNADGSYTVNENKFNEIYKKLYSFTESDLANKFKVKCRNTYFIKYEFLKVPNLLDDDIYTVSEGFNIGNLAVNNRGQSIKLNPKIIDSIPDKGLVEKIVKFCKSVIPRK
Protein Wnt-3a, sequence (P27467 whole entry): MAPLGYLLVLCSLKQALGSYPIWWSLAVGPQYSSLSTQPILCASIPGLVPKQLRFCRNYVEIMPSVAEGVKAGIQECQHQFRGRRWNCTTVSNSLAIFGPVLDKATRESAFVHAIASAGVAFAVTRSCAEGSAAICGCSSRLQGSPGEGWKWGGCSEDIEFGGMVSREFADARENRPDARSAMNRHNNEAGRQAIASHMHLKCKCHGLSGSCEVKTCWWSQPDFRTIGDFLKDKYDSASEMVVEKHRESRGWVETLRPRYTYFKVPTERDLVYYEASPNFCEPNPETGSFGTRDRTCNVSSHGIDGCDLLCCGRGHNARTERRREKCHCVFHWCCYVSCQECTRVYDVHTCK
Galanin receptor type 3, sequence (O60755 whole entry): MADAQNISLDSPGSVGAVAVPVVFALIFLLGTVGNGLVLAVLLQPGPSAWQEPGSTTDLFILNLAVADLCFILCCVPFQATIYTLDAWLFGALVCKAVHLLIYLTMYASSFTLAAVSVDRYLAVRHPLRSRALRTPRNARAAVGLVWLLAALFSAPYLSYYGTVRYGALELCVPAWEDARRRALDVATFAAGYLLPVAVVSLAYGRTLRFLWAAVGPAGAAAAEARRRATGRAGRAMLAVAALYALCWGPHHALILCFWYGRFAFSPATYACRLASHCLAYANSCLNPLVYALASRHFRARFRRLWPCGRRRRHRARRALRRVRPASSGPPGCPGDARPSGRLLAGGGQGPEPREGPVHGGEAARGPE
Paired box protein Pax-8, sequence (Q06710 whole entry): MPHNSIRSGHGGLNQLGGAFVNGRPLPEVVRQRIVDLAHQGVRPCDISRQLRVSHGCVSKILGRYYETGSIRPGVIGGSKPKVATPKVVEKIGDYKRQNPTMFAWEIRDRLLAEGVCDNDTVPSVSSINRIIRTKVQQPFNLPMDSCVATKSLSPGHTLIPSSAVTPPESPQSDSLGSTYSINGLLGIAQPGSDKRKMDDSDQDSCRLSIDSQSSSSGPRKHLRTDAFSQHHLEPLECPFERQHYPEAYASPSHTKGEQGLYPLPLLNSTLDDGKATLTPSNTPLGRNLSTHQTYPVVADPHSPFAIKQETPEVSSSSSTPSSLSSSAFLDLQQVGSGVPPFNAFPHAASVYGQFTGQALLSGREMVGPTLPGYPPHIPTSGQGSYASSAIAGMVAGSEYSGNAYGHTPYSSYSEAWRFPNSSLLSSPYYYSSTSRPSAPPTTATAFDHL

CO[C@H]1CN(C)C(=O)c2cc(NC(=O)Nc3ccc(Cl)c(Cl)c3)ccc2OC[C@H](C)NC[C@H]1C
AC50 [1]: 26.6 µM (active) | AC50 [2]: > 70 µM (inactive) | AC50 [3]: 12.1 µM (active) | AC50 [4]: 18.1 µM (active) | AC50 [5]: 10.4 µM (active) | AC50 [6]: 23.2 µM (active) | AC50 [7]: 18.5 µM (active)

C[C@H]1CCCCO[C@H](CN(C)C(=O)C2CCCCC2)[C@@H](C)CN([C@@H](C)CO)C(=O)c2cc(NC(=O)Nc3ccc(F)cc3)ccc2O1
AC50 [8]: 8.1 µM (active) | AC50 [9]: 57.6 µM (active)

COc1ccc(C(=O)NCCN2CCCC2)cc1OC1CCN(C(C)C)CC1
IC50 [10]: 1.84 µM (active)

N#C[C@@H]1[C@H](c2ccc(C#Cc3ccccc3F)cc2)[C@@H](CO)N1C(=O)C1CC1
AC50 [11]: 5.44 µM (active) | AC50 [12]: 33.5 µM (active) | AC50 [13]: 24.9 µM (active) | AC50 [14]: 5.15 µM (active)

C[C@H](CO)N1C[C@H](C)[C@H](CN(C)C(=O)Nc2cccc3ccccc23)OCCCC[C@H](C)Oc2ccc(NC(=O)C3CCCCC3)cc2C1=O
AC50 [13]: 43.9 µM (active) | AC50 [15]: 0.747 µM (active)

CN(C)c1cc(NC(=O)c2cccc(C#N)c2)ncn1
IC50 [16]: > 21.8 µM (inactive)

COc1ccc(-c2oc3c(OC)c(OC)c(OC)c(O)c3c(=O)c2OC)cc1OC
EC50 [17]: > 20 µM (inactive) | IC50 [18]: > 79 µM (inactive)

Cc1nc2ccccc2n1Cc1ccc(Cl)cc1 [CHLORMIDAZOLE]
AC50 [19]: 2.79 µM (active) | IC50 [20]: 1.22 µM (active) | IC50 [21]: > 20 µM (inactive) | IC50 [22]: > 10 µM (inactive) | AC50 [23]: 1.46 µM (active) | EC50 [24]: > 29.9 µM (inactive) | IC50 [25]: 5.33 µM (inactive) | IC50 [26]: > 10 µM (inactive) | IC50 [27]: 15.2 µM (inactive) | IC50 [28]: > 20 µM (inactive) | IC50 [29]: 10.6 µM (inactive) | AC50 [30]: 28.2 µM (active) | IC50 [31]: 0.203 µM (active) | IC50 [32]: > 20 µM (inactive)
